The term LD50 denotes the dose at which mortality reaches 50%. A higher LD50 goes with lower toxicity. The Ki is a measure of affinity in units of concentration, obtained from inhibition or displacement. Higher therefore signals weaker binding.

Where only a bound is given, the exact number is not on record here.

This is an account of results in patent US5192799A, “Coumaran group containing amine compounds and their acid addition salts and quaternary ammonium salts and the use thereof as anti arrhythmic agents and as psychotropic agents” (Mitsui Petrochemical Industries, Ltd., priority 1987, dated 1993).

The test system of one data set is Purkinje fiber. The data set is described as follows: Effect on APD (APD75, field-stimulated right ventricular free wall). The format is cell-based, adult mongrel dog. Conditions: Canis lupus familiaris, purkinje, 20 min, 20 minutes incubation, 37° C., 1 Hz, control before drug = 100%, read-out: APD75 % (percent change in APD75). Summed up:
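Right ventricular free wall from pentobarbital-anaesthetized adult mongrel dog, held in Tyrode's solution at 37° C. with 1 Hz field stimulation. Purkinje fiber action potentials recorded by intracellular glass microelectrodes; APD75 measured after 20 minutes drug perfusion, expressed as percent change versus pre-drug control (100%).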

Data set [1] concerns right ventricle (effective refractory period). The data set can be described thus: Activity on ERP of the right ventricle. The data set is classed as in vivo, adult mongrel dog. The conditions noted are these: Canis lupus familiaris, iv, ERP before drug = 100%, read-out: ERP % (ERP prolonging activity). The method, boiled down:
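Anaesthetized open-chest mongrel dogs, right ventricle paced at 400 msec interval (4 msec, twice diastolic threshold) after alcohol ablation of sinus pacemaker. ERP defined by loss of response to first stimulus of a 10-stimulus train; drug given intravenously or intraduodenally, ERP expressed as % of pre-dose.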

A further data set deals with atrial fibrillation. The data set can be described thus: Atrial fibrillation model. The data set is classed as in vivo, mongrel dog. The conditions noted are these: dose of 0.3 to 3 mg/kg or 1 to 10 mg/kg. The source says:
Furthermore, the anaethetized dog was cut open at the chest. Bipolar electrodes were sutured to the right atrial surface, and stimulation electrodes were attached to the vagus nerves at both sides of the cervical region. Atrial fibrillation was induced by the method of Goldberger et al. A. L. Goldberger et al.: […] Further, the anaethetized dog was cut open at the chest. Left anterior descending coronary artery was ligated, and ninety minutes later, reperfused to prepare a myocardial infarction which was liable to develop tachycardia. At that time, a bipolar plunge electrode was placed in the interventricular septum near the ligated site. Several days after the operation, programmed electrical stimulation was applied to induce tachycardia. The effect of the drug to cause disappear of tachycardia was examined. In an anaethetized and open-chested mongrel dog, bipolar electrodes (silver and silver-silver chloride electrodes) were sutured respectively to the right atrium for stimulation and recording. The vagus nerves on both sides of the cervical region were isolated and cut, and stimulation electrodes were attached to the peripheral end. The atrial fibrillation was induced in accordance with the method of Goldberger et al. After cardiac arrest induced by stimulating the vagus nerves, electrical stimulation was applied to the right atria at a high frequency.

The subject of a further data set is mice. The data set can be described thus: in vivo. The conditions noted are these: p.o., 24 hours after administration, male ddY mice; 1440 min. Here is the method: (§1) By using male ddY-strain 5-week old mice (3 to 4 per group), the compounds of general formula (1) were each administered orally or intraperitoneally as a solution in saline or as a suspension in methyl cellulose, and 24 hours after the administration, the toxicity of the compounds was evaluated.

The nature of a further data set: in vivo. Conditions: mouse, in vivo, po. How it is done: as §1
The next data set addresses T1, dopamine 2 receptor (Rattus norvegicus, UniProt P61169).
T1 construct: membrane fractions prepared from the brain a Wistarstrain male rat; from tissue; host or cells: rat brain striatum (Wistar, male), membrane fraction
The data set is described as follows: [3H]spiperone binding assay (affinity for dopamine 2 receptor). Further details: species or system Wistar-strain male rat. Conditions: rat striatal membranes, 0.5 nM [3H] spiperone, 37° C., 10 minutes. How it is done:
(§2) Striatal membranes fractions were prepared from a rat brain, and the affinity of the compounds of this invention on dopamine 2 receptors was determined by using [^3 H] spiperone assay from membranes fractions as an index. Moreover, frontal cortex membranes were prepared from a rat brain, and the affinity of the test drugs on serotonine 2 receptor was determined by using [^3 H] ketenserin binding assay. It was shown that the compounds of general formula (1) of the invention have marked anti-dopamine activity and anti-serotonine activity.
[^3 H]spiperone binding assay
The affinity of the compounds of this invention to the dopamine 2 receptor was determined on the basis of the ability to substitute [^3 H] spiperone from stratal membrane fractions prepared from the brain a Wistarstrain male rat.
The rat was decapitated, and the brain was obtained. The striatum was homogenized in 40 volumes of 50 mM Tris-HCl buffer (pH 7.6), and then centrifuged. The pellets were again homogenized in 50 volumes of the same buffer, and used in a binding test. The binding test was conducted by the following procedure.
The stria (original tissue weight 20 mg/ml), 100 microliters of a test drug and 0.5 nM of [^3 H] spiperone were incubated at 37° C. for 10 minutes in 50 mM Tris-HCl buffer (pH 7.6). Then, the reaction mixture was suction-filtered through a glass fiber filter (Watmann GF/B) and washed with a buffer three times.
The filter was put in a scintillation cocktail (ACSII, Amersham Co.), and after mixing, left to stand overnight. The radioactivity held on the filter was measured by a liquid scintillation counter. The nonspecific binding was measured in the presence of 1 μM of (+) butaclamol. The concentration of the test drug which inhibited 50% of a specific binding was determined from the graph and defined as IC50. Ki was calculated from the following equation. [formula]

The target in the next data set is T2, serotonine 2 receptor (Rattus norvegicus, UniProt P14842).
T2 construct: frontal cortex fraction prepared from the brain of a Wistar male rat; from tissue; host or cells: rat brain frontal cortex (Wistar, male), membrane fraction
The data set is described as follows: [3H]ketanserin binding assay (affinity for serotonine 2 receptor). On the set-up: species or system Wistar male rat. Conditions: rat frontal cortex, 1 nM [3H] ketanserin, 37° C., 10 minutes. How it is done: as §2
[^3 H] ketanserin binding assay
The affinity of the compound of the invention was determined on the basis of the ability to substitute [^3 H] ketanserin from a frontal cortex fraction prepared from the brain of a Wistar male rat.
The rat was decapitated, and the brain was obtained. The frontal cortex was homogenized in 40 volumes of 50 mM Tris-HCl buffer (pH 7.6), and then centrifuged. The pellets were again homogenized in 100 volumes of the same buffer, and used in a binding test. The binding test was conducted by the following procedure.
The frontal cortex (original tissue weight 1 mg/ml), 100 microliters of a test drug and 1 nM of [^3 H] ketanserin were incubated at 37° C. for 10 minutes in 50 mM Tris-HCl buffer (pH 7.6). Then, the reaction mixture was suction-filtered through a glass fiber filter (Watmann GF/B) and washed with a buffer three times.
The filter was put in a scintillation cocktail (ACSII, Amersham Co.), and after mixing, left to stand overnight. The radioactivity held on the filter was measured by a liquid scintillation counter. The nonspecific binding was measured in the presence of 1 μM of methysergide. The concentration of the test drug which inhibited 50% of a specific binding was determined from the graph and defined as IC5. Ki was calculated from the following equation. [formula]

Data set [2] relates to Apomorphine-induced climbing of mice. The data set is described as follows: Apomorphine-induced climbing (anti-DA activity). The format is in vivo, ddY-strain male mice. The source says: (§3) The effects of the compounds of general formula (1) on the apomorphine-induced climbing behavior of mice (i.e. anti-dopamine activity) and the effects of the test drugs of the invention on the quipazine-induced head twitching of mice (i.e. anti-serotonine activity) were also examined. It was made clear that the compounds of this invention represented by general formula (1) have marked anti-dopamine activity and anti-serotonine activity both in vivo and in vitro, and have potentiality as an anti-psychotic agent, an anti-depressant, an antianxiety agent, a sedative or as an anti-dementia agent.
(§4) By using 5 week old ddY-strain male mice (10 per group), the anti-dopamine (anti-DA hereinafter) and anti-serotonine (anti-5-HT hereinafter) activities were examined by the following procedures. All does of test drugs were adjusted to 1 mg/ml. They were each suspended in 0.5% carboxymethyl cellulose (CMC)/saline so that their volume administered was 0.1 ml/10 g. The suspension was administered intraperitoneally.
1. Effect of apomorphine on the climbing behavior (anti-DA activity):
Apomorphine (3 mg/kg) was subcutaneously administered 30 minutes after the intraperitoneal administration of each test drug, and 20 minutes later, the climbing time of each mouse was measured.

Data set [3] relates to Quipazine-induced head twitching of mice. The data set is described as follows: Quipazine-induced head twitching (anti-5-HT activity). The format is in vivo, ddY-strain male mice.
Excerpt: as §3, §4
2. Effect of quipazine on the head twitch (anti-5-HT activity):
Quipazine (3 mg/kg) was administered intraperitoneally 30 minutes after the intraperitoneal administration of each test drug. After the lapse of 10 minutes, 20 minutes and 30 minutes from then, the number of head twitchings of each mouse which occurred for 2 minutes was counted.

T2 sequence (P14842 whole entry): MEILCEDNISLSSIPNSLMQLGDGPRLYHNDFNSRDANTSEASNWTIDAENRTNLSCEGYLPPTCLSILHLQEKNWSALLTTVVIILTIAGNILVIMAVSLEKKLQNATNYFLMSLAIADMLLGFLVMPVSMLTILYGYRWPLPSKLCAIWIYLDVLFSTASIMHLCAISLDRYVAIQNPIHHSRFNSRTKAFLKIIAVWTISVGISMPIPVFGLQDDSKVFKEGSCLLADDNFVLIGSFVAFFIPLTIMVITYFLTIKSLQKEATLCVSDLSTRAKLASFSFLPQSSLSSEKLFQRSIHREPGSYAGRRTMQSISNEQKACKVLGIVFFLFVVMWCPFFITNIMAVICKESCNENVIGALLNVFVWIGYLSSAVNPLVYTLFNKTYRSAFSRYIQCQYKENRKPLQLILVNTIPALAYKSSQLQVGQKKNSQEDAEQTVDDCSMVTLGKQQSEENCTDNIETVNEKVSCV
T1 sequence (P61169 whole entry): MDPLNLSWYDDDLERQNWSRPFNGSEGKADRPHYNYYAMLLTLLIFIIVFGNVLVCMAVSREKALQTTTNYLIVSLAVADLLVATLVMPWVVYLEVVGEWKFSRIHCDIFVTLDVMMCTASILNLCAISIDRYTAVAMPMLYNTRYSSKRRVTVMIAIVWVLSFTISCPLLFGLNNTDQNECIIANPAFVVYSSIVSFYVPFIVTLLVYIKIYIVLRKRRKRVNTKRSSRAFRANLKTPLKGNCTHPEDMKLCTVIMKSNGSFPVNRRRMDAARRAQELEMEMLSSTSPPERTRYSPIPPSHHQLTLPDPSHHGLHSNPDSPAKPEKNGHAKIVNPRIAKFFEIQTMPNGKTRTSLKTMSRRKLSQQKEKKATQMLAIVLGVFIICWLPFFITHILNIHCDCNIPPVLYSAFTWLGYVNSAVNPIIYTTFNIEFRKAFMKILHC

In the case of `O=C1COc2cc(OCCCN3CCC(c4ccccc4)CC3)ccc21` [Compound 1139], the activation at 1 µg/mL in the data set with Purkinje fiber (dose 1 μg/ml) amounted to 33%. In the data set on Purkinje fiber (dose 3 μg/ml), the activation at 3 µg/mL was 55%. Besides, the activation at 10 µg/mL in the data set with Purkinje fiber (dose 10 μg/ml) was 65%. The change in vivo at 0.3 mg/kg in [1] (0.3 mg/kg i.v.) stood at 5%. In addition, the change in vivo at 1 mg/kg in [1] (1 mg/kg i.v.) came out at 11%. Besides, the “disappearance of atrial fibrillation” value with atrial fibrillation is “could cause disappearance fibrillation”. In the data set with mice, the LD50 p.o. is > 1,000 mg/kg.

Turning to `O=C1COc2cc(OCCCN3CCC(c4ccccc4)CC3)ccc21` [Compound 1140], the LD50 p.o. in the data set on mice is given as > 300 mg/kg.

As to `O=C1COc2cc(OCCCN3CCC(C(=O)c4ccc(F)cc4)CC3)ccc21` [Compound 1236], in the data set “in vivo”, the median lethal dose (LD50) at 24 h was < 300 mg/kg. In addition, the Ki is 122 nM on dopamine 2 receptor and 9.1 nM on serotonine 2 receptor. The “Percent inhibition of apomorphine-induced climbing” value in data set [2] (1 mg/kg i.p.) is on record as 56%. For the same compound, the “Apomorphine-induced climbing (mean ± S.E.)” value in data set [2] (1 mg/kg i.p., control 72.9 ± 8.5, **p < 0.01) came out at 32.0 ± 8.6 sec/2 min. Further, in data set [2] (in vivo, mice), the “effect on apomorphine-induced climbing behavior / anti-dopamine activity (in words)” value is “significantly inhibited the apomorphine-induced climbing behavior”. Moreover, the “Percent inhibition of quipazine-induced head twitching” value in data set [3] (1 mg/kg i.p.) came out at 99%. In addition, in data set [3] (1 mg/kg i.p., control 6.7 ± 0.8, **p < 0.05, ***p < 0.001), the Quipazine-induced head twitching was determined as 0.1 ± 0.1 number/2 min. In addition, the “effect on quipazine-induced head twitching / anti-serotonine activity (in words)” value in [3] (in vivo, mice) was “significantly inhibited the apomorphine-induced climbing behavior and quipazine-induced head twitching”.
